This passage reports outcome results from PubChem BioAssay AID1205 (EPA DSSTox, 2008).

Activity calls are given as the source filed them.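 How the source made its calls: active means tumour findings in long-term animal cancer tests in more than one sex, species or organ; inactive means no tumour finding and more than one negative test.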

This series can be described thus: DSSTox (CPDBAS) Carcinogenic Potency Database Summary MultiCellCall Results. As to conditions: animal carcinogenicity bioassays, multi-cell call summary. Put shortly: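 Summary call drawn from chronic long-term cancer bioassays in rats, mice, hamsters, dogs and nonhuman primates, using the most positive result per sex-species. Score: multispecies=50, multisex=30, multisite=20, summed for combinations.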
Regarding `OCN(CO)c1nc(N(CO)CO)nc(N(CO)CO)n1`, the outcome was “active; multisite active”. To `Nc1cc(S(=O)(=O)[O-])cc2cc(S(=O)(=O)[O-])c(N=Nc3ccc(-c4ccc(N=Nc5c(S(=O)(=O)[O-])cc6cc(S(=O)(=O)[O-])cc(N)c6c5O)c(O)c4)cc3O)c(O)c12.[Cu].[Cu].[Na+].[Na+].[Na+].[Na+]` belongs “active; multisite active; multisex active; multispecies active”.

As for `c1cc(OCC2CO2)cc(OCC2CO2)c1` (stereo unspecified), the outcome is “active; multisex active; multispecies active”. To `C=CCO` belongs “inactive; multisex inactive”; to `C1CNCCN1`, “inactive; multisex inactive”. On to `FC(F)(F)CCl`, for which the outcome was “active; multisite active; multisex active”. As to `OCl`, the outcome is “inactive; multisex inactive; multispecies inactive”. For `CN(N=O)C(N)=O`, the outcome was “active; multisite active; multispecies active”.

As for `CC1=CC(=C(c2ccc(N)cc2)c2ccc(N)cc2)C=CC1=N`, the outcome was “inactive; multisex inactive; multispecies inactive”. Next, `CC1(C)[C@H](C(=O)O[C@H](C#N)c2cccc(Oc3ccccc3)c2)[C@@H]1C=C(Br)Br`: “inactive; multisex inactive; multispecies inactive”; `CC[C@H]1OC(=O)C[C@@H](O)[C@H](C)[C@@H](O[C@@H]2O[C@H](C)[C@@H](O[C@H]3C[C@@](C)(O)[C@@H](O)[C@H](C)O3)[C@H](N(C)C)[C@H]2O)[C@@H](CC=O)C[C@@H](C)C(=O)/C=C/C(C)=C/C1CO[C@@H]1O[C@H](C)[C@@H](O)[C@@H](OC)[C@H]1OC` (stereo partly specified): “inactive; multisex inactive”. To `CCCCN(N=O)C(N)=O` belongs “active; multisite active; multisex active”; to `Oc1cccc(O)c1`, “inactive; multisex inactive; multispecies inactive”; to `CC1=CC(=O)NS(=O)(=O)O1`, “inactive; multisex inactive”. Next, `S=C(S)NCCNC(=S)S`: “inactive; multisex inactive”; `Cc1cc(C(C)(C)C)c(O)c(C(C)(C)C)c1`: “active; multisite active”; `C[C@]12C=CC(=O)C=C1CC[C@@H]1[C@@H]2C(=O)C[C@@]2(C)[C@H]1CC[C@]2(O)C(=O)CO`: “inactive; multisex inactive”. With `CC(C)(CCCOc1ccc(OCCCC(C)(C)C(=O)O)c(-c2ccccc2)c1)C(=O)O`, the outcome was “active; multisex active”. Next, `CC(C)Nc1nc(Cl)nc(NC(C)C)n1`: “inactive; multisex inactive”; `O=C(O)[C@@H]1[C@H](C(=O)O)[C@@]2(Cl)C(Cl)=C(Cl)[C@]1(Cl)C2(Cl)Cl`: “active; multisite active; multisex active; multispecies active”. To `O=P(O)(OCC(Br)CBr)OCC(Br)CBr` (stereo unspecified) belongs “active; multisite active; multisex active”; to `ClCc1ccccn1`, “inactive; multisex inactive; multispecies inactive”.

`CN=[N+](C)[O-]`: the outcome was “active; multisite active”. To `N[C@@H](Cc1ccc(N(CCCl)CCCl)cc1)C(=O)O` belongs “active; multisite active; multisex active; multispecies active”; to `NS(=O)(=O)c1cc2c(cc1Cl)NCNS2(=O)=O`, “inactive; multisex inactive; multispecies inactive”.

Consider `ClC(Cl)=C(Cl)c1c(Cl)c(Cl)c(Cl)c(Cl)c1Cl`, for which the outcome is “inactive; multisex inactive; multispecies inactive”. On to `Cc1ccccc1N=O`, for which the outcome was “active; multisite active”.

With `OCC(CO)(CBr)CBr`, the outcome was “active; multisite active; multisex active; multispecies active”.

Turning to `Cc1ccc(OP(=O)(Oc2ccc(C)cc2)Oc2ccc(C)cc2)cc1`, the outcome is “inactive; multisex inactive; multispecies inactive”.

Regarding `Cc1cc(C)nc(-c2ccc([N+](=O)[O-])o2)n1`, the outcome was “active; multisite active”. For the compound `O=CNNC=O`, the outcome was “active; multisex active”.

With `CCN(CC)C(=O)Nc1ccc(OCC(O)CNC(C)(C)C)c(C(C)=O)c1` (stereo unspecified), the outcome is “inactive; multisex inactive; multispecies inactive”. Next, `COc1cccc2c1cc([N+](=O)[O-])c1c(C(=O)O)cc3c(c12)OCO3`: “active; multisex active”. As to `O=C(c1ccccc1)C(O)c1ccccc1` (stereo unspecified), the outcome is “inactive; multisex inactive; multispecies inactive”. Next, `CN(C)C(=S)[S][Bi]([S]C(=S)N(C)C)[S]C(=S)N(C)C`: “inactive; multisex inactive”; `C=CC(=O)NCO`: “active; multisite active; multisex active”; `ClC(Cl)(Cl)Cl`: “active; multisite active; multisex active; multispecies active”. `c1ccc2cc(Nc3ccc(Nc4ccc5ccccc5c4)cc3)ccc2c1`: the outcome is “inactive; multisex inactive”. To `ClC1=C(Cl)[C@]2(Cl)[C@@H]3[C@@H]4C[C@@H]([C@H]5O[C@@H]45)[C@@H]3[C@@]1(Cl)C2(Cl)Cl` belongs “active; multisex active”; to `CCCCCCCCCC[N+](C)(C)[O-]`, “inactive; multisex inactive”. As to `CCN(CC)C(=O)/C(Cl)=C(\C)OP(=O)(OC)OC`, the outcome was “inactive; multisex inactive”.

For `CN(C)N=O`, the outcome is “active; multisite active; multisex active; multispecies active”. On to `NC(=O)NC1NC(=O)NC1=O` (stereo unspecified), for which the outcome is “inactive; multisex inactive”.

Take `CCN=c1cc2oc3cc(NCC)c(C)cc3c(-c3ccccc3C(=O)OCC)c-2cc1C`: the outcome was “inactive; multisex inactive; multispecies inactive”.

With `CC(C(O)c1ccccc1)N(C)N=O` (stereo unspecified), the outcome is “active; multisite active”. As to `CC(=O)N(C(C)=O)c1cccc2c1Cc1ccccc1-2`, the outcome is “active; multisite active”. As to `S=c1[nH]c2ccccc2s1`, the outcome is “active; multisite active; multisex active”. To `CN(C)C(=S)S[Se](SC(=S)N(C)C)(SC(=S)N(C)C)SC(=S)N(C)C` belongs “inactive; multisex inactive”; to `O=C(O)/C=C/c1ccc(O)c(O)c1`, “active; multisite active; multisex active; multispecies active”. Next, `CC(=O)Nc1ccc2c(c1)Cc1ccccc1-2`: “active; multisite active; multisex active; multispecies active”; `Nc1ccc(Oc2ccc(Cl)cc2)cc1`: “active; multisite active; multisex active; multispecies active”; `CCCCNC(=O)N(CCCC)N=O`: “active; multisite active”.

Regarding `Clc1ccccc1Cl`, the outcome is “inactive; multisex inactive; multispecies inactive”. For the compound `COc1cccc2c1C(=O)c1c(O)c3c(c(O)c1C2=O)C[C@@](O)(C(=O)CO)C[C@@H]3O[C@H]1C[C@H](N)[C@H](O)[C@H](C)O1`, the outcome was “inactive; multispecies inactive”. Next, `O=C(O)CCl`: “inactive; multisex inactive; multispecies inactive”; `COC(=O)C1=C(C)NC(C)=C(C(=O)OCCN2CCN(C(c3ccccc3)c3ccccc3)CC2)C1c1cccc([N+](=O)[O-])c1` (stereo unspecified): “inactive; multisex inactive; multispecies inactive”. Turning to `CCC[N+](=O)[O-]`, the outcome is “inactive; multisex inactive”. Next, `CC(Cl)Cl`: “inactive; multisex inactive; multispecies inactive”; `CN(C)CCOc1ccc(/C(=C(/CCCl)c2ccccc2)c2ccccc2)cc1`: “inactive; multisex inactive”. With `Cc1[nH]cnc1CSCCN=C(NC#N)N(C)N=O`, the outcome is “inactive; multisex inactive; multispecies inactive”.

Take `CN(CCO)N=O`: the outcome is “active; multisite active”. To `CCOc1ccc2c(c1)C(C)=CC(C)(C)N2` belongs “inactive; multisex inactive”; to `CC1=C(C(=O)OCCN(Cc2ccccc2)c2ccccc2)C(c2cccc([N+](=O)[O-])c2)C(P2(=O)OCC(C)(C)CO2)=C(C)N1` (stereo unspecified), “inactive; multisex inactive; multispecies inactive”; to `CN(C)CCOC(c1ccccc1)c1ccccc1`, “inactive; multisex inactive; multispecies inactive”. Next, `Oc1cccc2cccnc12.Oc1cccc2cccnc12.[Cu]`: “inactive; multisex inactive”. Next, `NNc1nc(-c2ccc([N+](=O)[O-])o2)cs1`: “active; multisite active; multispecies active”; `CCOCCc1c(-c2ccccc2)nc(N)n2ncnc12`: “active; multisite active; multisex active”. As for `COP(=O)(OC)OC=C(Cl)Cl`, the outcome is “active; multisite active; multisex active; multispecies active”. Next, `COC(=O)c1ccc(C(=O)OC)cc1`: “inactive; multisex inactive; multispecies inactive”; `Cc1cc2ncccc2c2nc(N)n(C)c12`: “active; multisite active; multisex active”. Next, `CC(C)=CCC/C(C)=C/C=O`: “inactive; multisex inactive; multispecies inactive”; `CCOc1nc2cccc(C(=O)OC(C)OC(=O)OC3CCCCC3)c2n1Cc1ccc(-c2ccccc2-c2nn[nH]n2)cc1` (stereo unspecified): “inactive; multisex inactive”. Turning to `CCCCCCc1ccc(O)cc1O`, the outcome was “inactive; multisex inactive; multispecies inactive”.

With `CCC1C(=O)OCC1Cc1cncn1C` (stereo unspecified), the outcome is “inactive; multisex inactive”. As to `O=C(O)Cc1c[nH]c2ccccc12`, the outcome was “inactive; multisex inactive”.

With `COc1cc(CNC(=O)CCCC/C=C/C(C)C)ccc1O`, the outcome was “active; multisex active”. Turning to `CC(C)(C)NC[C@H](O)COc1cccc2c1CCCC2=O`, the outcome is “inactive; multisex inactive; multispecies inactive”. Next, `CC(=O)C(N=Nc1ccc(-c2ccc(N=NC(C(C)=O)C(=O)Nc3ccccc3)c(Cl)c2)cc1Cl)C(=O)Nc1ccccc1` (stereo unspecified): “inactive; multisex inactive; multispecies inactive”; `C=CCc1ccc(O)c(OC)c1`: “inactive; multisex inactive; multispecies inactive”. To `C=CCN(CCO)N=O` belongs “active; multisite active”. For `CC/C(=C(\c1ccccc1)c1ccc(OCCN(C)C)cc1)c1ccccc1`, the outcome was “active; multisite active; multisex active; multispecies active”.
